Measurements taken from US6982252B2, “Inhibition of vacuolar proton ATPase activity and/or the modulation of acidic organelle function sensitizes cells to radiation, chemotherapy and biological agents” (Memorial Sloan-Kettering Cancer Center, priority 2000, dated 2006).
Marks after values point to notes of the source that are not given here.

Legend:
[1] = tested on: DNA of irradiated MCF-7 cells; experiment: DNA fragmentation by pulse field gel electrophoresis (PFGE); format: cell-based, human; conditions: bafilomycin A1 (4 nM) added two days following 10 Gy, for 24 hours
Procedure: FIG. 6. Bafilomycin A1 enhances DNA fragmentation in irradiated cells: Cells were irradiated 48 hours post-plating and bafilomycin A1 (4 nM) was added 48 hours following irradiation, for the duration of 24 hours, from concentrated stock solution at dimethylsulfoxide (DMSO) to a final concentration of 4 nM. Control cells received the vehicle alone. Cells were harvested 72 hours following irradiation. Plug preparation and resolution of DNA was conducted according to Gilles et al. (2000, Blood 95:2930-2936). M-DNA size standard, lambda 50 kb ladder. A-Unirradiated controls. B-Cells irradiated with 10 Gy. C-Unirradiated cells incubated with 4 nM bafilomycin A1. D-Cells irradiated with 10 Gy and incubated with 4 nM bafilomycin A1. Window of DNA resolution was 20 kb-1000 kb. Arrow 1 points to sample origin. Arrow 2 points to zone of no resolution.
DNA extraction and electrophoresis on agarose gel was carried out according to Bose et al., 1995, Cell 82:405-414. DNA preparation and resolution with pulse field gel electrophoresis (PFGE) was conducted as described in Gilles et al., 2000, Blood 95:2930-2936 utilizing the CHEF Mapper (Bio-Rad, Richmond, Calif.). DNA strand breaks were assayed by the TUNEL method and analyzed by flow cytometry (Haimovitz-Friedman, 1994, J. Exp. Med. 180:525-535).

[2] = tested on: MCF-7 (human breast adenocarcinoma); experiment: Clonogenic survival (surviving fraction) of MCF-7 cells after radiation or chemotherapeutic agent; format: cell-based
[3] = tested on: acidic vesicular organelles (AVO) in MCF-7 cells; experiment: Mean red/green fluorescence ratio in acridine orange stained cells by flow cytometry; format: cell-based, human; conditions: 500 nM bafilomycin A1 30 minutes prior to acridine orange
Procedure: bFGF was added to cultures of MCF-7 cells at 10 ng/ml for 48 hours. TNF was added at 2.3 nM for 48 hours. PMA was added for 1 hour at a concentration of 30 nM, followed by rinsing of the cells and incubation for an additional 48 hours.
Cell staining was performed according to standard techniques (Arvan et al., 1984, J. Bio. Chem. 259:13567-13572; Mains and May, 1988, J. Biol. Chem. 263:7887-7894; Traganos and Darzynkiewicz, Methods in Cell Biology 41:185-194, Academic Press). Acridine orange (Polysciences, Warrington, Pa.) was added to a final concentration of 1 μg/ml for 15 minutes. Bafilomycin A1 (Sigma Chemical Co., St. Louis, Mo.) was dissolved in DMSO and added to the cells 30 minutes prior to the addition of acridine orange. LysoSensor Blue DND-167 (Molecular Probes, Eugene, Oreg.) at a final concentration of 10 μM was added for 8 minutes. Pictures were obtained with a fluorescence microscope (Olympus BH-2 RFCA), equipped with a mercury-100 W lamp, 490 nm band pass blue excitation filters, 500 nm dichroic mirror and a 515 nm long pass barrier filter. Images of control and irradiated cells were recorded on Kodak Elite II 100 ASA film for color slides by 4 seconds exposure.
In acridine orange stained cells the cytoplasm and nucleolus fluoresce bright green and dim red, while acidic compartments fluoresce bright red (Mains and May, 1988, J. Biol. Chem. 263:7887-7894; Traganos and Darzynkiewicz, Methods in Cell Biology Vol. 41, pp. 185-194, Academic Press). The intensity of the red fluorescence is proportional to the degree of acidity and/or the volume of the cellular acidic compartment. Therefore, by comparing the mean red/green fluorescence ratio within different cell populations, a change in the degree of acidity and/or the fractional volume of the cellular acidic compartment could be measured. Cells were stained with acridine orange for […], removed from the plate with trypsin-EDTA and collected in phenol red-free growth medium. Green (510-530 nm) and red (>650 nm) Fluoresence emission from 10,000 cells illuminated with blue (488 nm) excitation light was measured with a FACSCalibur from Becton Dickinson (San Jose, Calif.) using CellQuest software. The red to green fluorescence ratio for individual cells was calculated using FlowJo software (TREE STAR, Inc., San Carlos, Calif.). To control for possible effect of trypsinization on the measured red to green fluorescence ratio, the ratios were compared by flow cytometry with those obtained with a Laser Scanning Microscope (LSM510 from Zeiss). Stained cells, grown on cover glass, were illuminated with a 488 nm argon laser beam. The red (>650 nm) to green (505-545 nm) fluorescence ratio of an entire image was obtained using software LSM 510 version 2.01 SP2. These measurements yielded similar results to those obtained with flow cytometry. All determinations of red to green fluorescence ratio reported in this section were obtained via flow cytometry.

## bafilomycin A1
[1]
  DNA cleavage into large fragments (20-1000 kb): dramatically increased DNA clevage into large fragments
[2]; Table 15, Bafilomycin 2 nM + 100 nM adriamycin, average of two plates
  survival, column Adriamycin: (0.56; 0.58)0.57*
[2]; Table 18, Bafilomycin A1 2 nM, Etoposide 0 μg/ml
  cell survival, Bafilomycin A1 (2 nM): 0.9 ± 0.09
[2]; bafilomycin 2 nM, etoposide 0.05 μg/ml, Table 18
  decrease of survival in the presence of etoposide: 54%
[3]; 24 hours following 10 Gy
  radiation-induced increase of mean red/green fluorescence ratio: inhibited its radiation-induced increase
[3]; unirradiated
  mean red/green fluorescence ratio in unirradiated cells: decreased
